Measurements published in patent US20120214822A1 (ASTRAZENECA AB, priority 2007, published 2012).

Biological target: human active recombinant p38α-6His tagged (Homo sapiens, UniProt Q16539)
Assay: P38 Alpha Enzyme Assay (AlphaScreen, biotinylated-ATF2 substrate);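 further: 0.5 nM final p38α, reaction started with ATP and run 45 min at 37 °C, phospho-ATF2 read by antibody-based AlphaScreen, background wells quenched with EDTA before ATP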
Type: biochemical
Details: p38 alpha enzyme inhibition; means of replicate determinations; 4 h pre-incubation at 37° C.; SD of assay 0.2-0.3 log units

Sequence of human active recombinant p38α-6His tagged (Q16539 whole entry): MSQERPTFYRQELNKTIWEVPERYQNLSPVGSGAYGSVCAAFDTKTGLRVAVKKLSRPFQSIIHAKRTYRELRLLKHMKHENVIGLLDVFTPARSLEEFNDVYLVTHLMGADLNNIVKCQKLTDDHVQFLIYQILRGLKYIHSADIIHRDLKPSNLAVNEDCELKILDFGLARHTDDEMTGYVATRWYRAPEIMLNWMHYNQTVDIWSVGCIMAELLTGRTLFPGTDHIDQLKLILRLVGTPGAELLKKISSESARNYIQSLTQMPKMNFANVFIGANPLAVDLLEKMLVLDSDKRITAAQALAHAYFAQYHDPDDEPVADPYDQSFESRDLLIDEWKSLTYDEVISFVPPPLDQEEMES

| pIC50 | SMILES |
| --- | --- |
| 9.1 | Cc1ccc(C(=O)NC2CC2)cc1-n1ccnc(N[C@@H](c2ccccc2)[C@@H](C)CN2C[C@@H](C)N[C@@H](C)C2)c1=O [Example 194, N-Cyclopropyl-3-[3-[[(1R,2S)-3-[(3R,5S)-3,5-dimethyl-1-piperazinyl]-2-methyl-1-phenylpropyl]amino]-2-oxo-1(2H)-pyrazinyl]-4-methyl-benzamide] |
| 8.9 | Cc1ccc(C(=O)NC2CC2)cc1-n1ccnc(NC(C)(C)c2ccccc2O)c1=O [Example 134, N-Cyclopropyl-3-[3-[[1-(2-hydroxyphenyl)-1-methylethyl]amino]-2-oxo-1(2H)-pyrazinyl]-4-methyl-benzamide] |
| 8.1 | CONC(=O)c1ccc(C)c(-n2ccnc(N3CCNC(c4ccccc4)C3)c2=O)c1 (stereo not drawn) [Example 126, N-Methoxy-4-methyl-3-[2-oxo-3-(3-phenyl-1-piperazinyl)-1(2H)-pyrazinyl]-benzamide] |
| 6.5 | Cc1ccc(C(=O)NC2CC2)cc1-n1ccnc(NCc2ccc(Oc3ccccc3)cc2)c1=O [Example 45, N-Cyclopropyl-4-methyl-3-[2-oxo-3-[[(4-phenoxyphenyl)methyl]amino]-1(2H)-pyrazinyl]-benzamide] |
| 7.7 | Cc1ccc(C(=O)NC2CC2)cc1-n1ccnc(NCc2ccccc2C(F)(F)F)c1=O [Example 79, N-Cyclopropyl-4-methyl-3-[2-oxo-3-[[[2-(trifluoromethyl)phenyl]methyl]amino]-1(2H)-pyrazinyl]-benzamide] |
| 8.5 | CCNCCOc1ccccc1C(C)(C)Nc1nccn(-c2cc(C(=O)NC3CC3)ccc2CC)c1=O [Example 290, N-Cyclopropyl-4-ethyl-3-{3-[(1-{2-[2-(ethylamino)ethoxy]phenyl}-1-methylethyl)amino]-2-oxopyrazin-1(2H)-yl}benzamide] |
| 9.1 | Cc1ccc(C(=O)NC2CC2)cc1-n1ccnc(NC(C)(C)c2ccccc2OCCN2CCNCC2)c1=O [Example 199, N-Cyclopropyl-4-methyl-3-[3-[[1-methyl-1-[2-[2-(1-piperazinyl)ethoxy]phenyl]ethyl]amino]-2-oxo-1(2H)-pyrazinyl]-benzamide] |
| 9.6 | Cc1ccc(C(=O)NC2CC2)cc1-n1ccnc(NC(C)(C)c2ccccc2OC2CNC2)c1=O [Example 215, N-Cyclopropyl-4-methyl-3-[3-[[1-[2-(3-azetidinyloxy)phenyl]-1-methylethyl]amino]-2-oxo-1(2H)-pyrazinyl]-benzamide] |
| 9.5 | Cc1ccc(C(=O)NC2CC2)cc1-n1ccnc(NC2(c3cccc(F)c3OCCN)CC2)c1=O [Example 284, 3-[3-({1-[2-(2-Aminoethoxy)-3-fluorophenyl]cyclopropyl}amino)-2-oxopyrazin-1(2H)-yl]-N-cyclopropyl-4-methylbenzamide] |
| 9.9 | CNCCOc1ccccc1C(C)(C)Nc1nccn(-c2cc(C(=O)NC3CC3)cc(F)c2C)c1=O [Example 169, N-Cyclopropyl-3-fluoro-4-methyl-5-[3-[[1-methyl-1-[2-[2-(methylamino)ethoxy]phenyl]ethyl]amino]-2-oxo-1(2H)-pyrazinyl]-benzamide] |
| 8.9 | Cc1ccc(C(=O)NC2CC2)cc1-n1ccnc(N[C@@H](c2ccccc2)[C@@H](C)CN(C)CCN(C)C)c1=O [Example 156, N-Cyclopropyl-3-[3-[[(1R,2S)-3-[[2-(dimethylamino)ethyl]methylamino]-2-methyl-1-phenylpropyl]amino]-2-oxo-1(2H)-pyrazinyl]-4-methyl-benzamide] |
| 8.4 | CNCCOc1ccccc1C(C)(C)Nc1nccn(-c2cc(C(=O)NC3CCC3)ccc2C)c1=O [Example 224, N-Cyclobutyl-4-methyl-3-[3-[[1-methyl-1-[2-[2-(methylamino)ethoxy]phenyl]ethyl]amino]-2-oxo-1(2H)-pyrazinyl]-benzamide] |
| 9.5 | CCNCCOc1ccccc1C(CC)(CC)Nc1nccn(-c2cc(C(=O)NC3CC3)ccc2C)c1=O [Example 267, N-Cyclopropyl-3-[3-[[1-ethyl-1-[2-[2-(ethylamino)ethoxy]phenyl]propyl]amino]-2-oxo-1(2H)-pyrazinyl]-4-methyl-benzamide] |
| 9.1 | Cc1ccc(C(=O)NC2CC2)cc1-n1ccnc(N[C@@H](c2ccccc2)[C@@H](C)CNCCN(C)C)c1=O [Example 155, N-Cyclopropyl-3-[3-[[(1R,2S)-3-[[2-(dimethylamino)ethyl]amino]-2-methyl-1-phenylpropyl]amino]-2-oxo-1(2H)-pyrazinyl]-4-methyl-benzamide] |
| 9 | Cc1ccc(C(=O)NC2CC2)cc1-n1ccnc(N[C@@H](c2ccccc2)[C@@H](C)CN(C)C(C)(C)C)c1=O [Example 154, N-Cyclopropyl-3-[3-[[(1R,2S)-3-[(1,1-dimethylethyl)methylamino]-2-methyl-1-phenylpropyl]amino]-2-oxo-1(2H)-pyrazinyl]-4-methyl-benzamide] |
| 8.6 | CC(=O)N1CCN(C[C@H](C)[C@@H](Nc2nccn(-c3cc(C(=O)NC4CC4)ccc3C)c2=O)c2ccccc2)CC1 [Example 140, 3-[3-[[(1R,2S)-3-(4-Acetyl-1-piperazinyl)-2-methyl-1-phenylpropyl]amino]-2-oxo-1(2H)-pyrazinyl]-N-cyclopropyl-4-methyl-benzamide] |
| 9.4 | CONC(=O)c1ccc(C)c(-n2ccnc(NC(C)(C)c3ccccc3)c2=O)c1 [Example 112, N-Methoxy-4-methyl-3-[3-[(1-methyl-1-phenylethyl)amino]-2-oxo-1(2H)-pyrazinyl]] |
| 7.3 | Cc1ccc(C(=O)NC2CC2)cc1-n1ccnc(N2CCCC(c3ccccc3)C2)c1=O (stereo not drawn) [Example 60, N-Cyclopropyl-4-methyl-3-[2-oxo-3-(3-phenyl-1-piperidinyl)-1(2H)-pyrazinyl]-benzamide] |
| 8 | Cc1cccc(CNc2nccn(-c3cc(C(=O)NC4CC4)ccc3C)c2=O)c1 [Example 46, N-Cyclopropyl-4-methyl-3-[3-[[(3-methylphenyl)methyl]amino]-2-oxo-1(2H)-pyrazinyl]-benzamide] |
| 9.5 | Cc1ccc(C(=O)NC2CC2)cc1-n1ccnc(NC2(c3ccccc3OCCNCCF)CC2)c1=O [Example 245, N-Cyclopropyl-3-[3-[[1-[2-[2-[(2-fluoroethyl)amino]ethoxy]phenyl]cyclopropyl]amino]-2-oxo-1(2H)-pyrazinyl]-4-methyl-benzamide] |
| 7.6 | Cc1ccc(C(=O)NC2CC2)cc1-n1ccnc(N[C@H](CC(=O)NC2CC2)c2ccccc2)c1=O [Example 89] |
| 6.7 | Cc1ccc(CCNc2nccn(-c3cc(C(=O)NC4CC4)ccc3C)c2=O)cc1 [Example 74, N-Cyclopropyl-4-methyl-3-[3-[[2-(4-methylphenyl)ethyl]amino]-2-oxo-1(2H)-pyrazinyl]-benzamide] |
| 8.8 | Cc1ccc(C(=O)NC2CC2)cc1-n1ccnc(N[C@@H](c2ccccc2)[C@@H](C)CN2CCCC2)c1=O [Example 142, N-Cyclopropyl-4-methyl-3-[3-[[(1R,2S)-2-methyl-1-phenyl-3-(1-pyrrolidinyl)propyl]amino]-2-oxo-1(2H)-pyrazinyl]-benzamide] |
| 10 | Cc1ccc(C(=O)NC2CC2)cc1-n1ccnc(NC2(c3ccccc3OCCNC(CO)CO)CC2)c1=O [Example 294, N-Cyclopropyl-3-[3-({1-[2-(2-{[2-hydroxy-1-(hydroxymethyl)ethyl]amino}ethoxy)phenyl]cyclopropyl}amino)-2-oxopyrazin-1(2H)-yl]-4-methylbenzamide] |
